The values that follow come from patent US20040071787A1, “Pharmacologic, therapeutic and diagnostic regulation of FGF-1 export” (Maine Medical Center Research Institute, priority 1996, published 2004).

The test system of data set [1] is NIH-3T3 FGF-1-β-gal:p40 Syn-1 co-transfectants. Nature of the data set: p40 Syn-1 release from p40 Syn-1 co-transfectants at 37° C. or after heat shock, Syn-1 immunoblot. It is filed as cell-based, murine. The following applies: FIG. 18. Here is the method:
Amlexanox was also tested for an effect on the heat shock response of NIH-3T3 FGF-1-β-gal:p40 Syn-1 co-transfectants described above in Example 11. Media were conditioned by two 150 mm dishes of NIH3T3 cells stably co-transfected with FGF-1:β-Gal and rat p40 Syn-1 after exposure to temperature stress (41.5° C., 90 min) with or without treatment. The media were collected and resolved by 10% acrylamide SDS-PAGE under reducing conditions followed by immunoblot analysis for Syn-1 as described herein and in the cited references.
(FIG. 18: Lane 1: media derived from NIH3T3 cell FGF-1:β-Gal and p40 Syn1 co-transfectants maintained at 37° C. for 90 min. Lane 2: media derived from NIH3T3 cell FGF-1:β-gal and p40 Syn-1 co-transfectants following heat shock. Lanes 3 and 4: media derived from NIH3T3 cell FGF-1:β-gal and p40 Syn-1 co-transfectants maintained at 37° C. in the presence of 5×10^−5M, and […] AA673 (amlexanox) respectively. Lane 5: media derived from NIH3T3 cell FGF-1:β-gal and p40 Syn-1 co-transfectants following heat shock in the presence of 3×10^−4M, AA673. Lane 6: 50 ng of recombinant rat p40 Syn-1.)
(In general: Immunoblotting shows a protein as a band on a membrane.)

The test system of data set [2] is 3T3 cell line transfected with a chimeric FGF-1 construct having a functional signal sequence. The experiment in a line: Secretion by 3T3 cell line transfected with chimeric FGF-1 construct having a functional signal sequence (classical ER-Golgi pathway). It is filed as cell-based. Conditions: not shown. From the text: In a concentration dependent fashion, amlexanox inhibited the release of both FGF-1-β-gal and Syn-1 from NIH 3T3 FGF-1-β-gal:p65 Syn-1 co-transfectants in response to heat shock (FIG. 17). […] A 3T3 cell line transfected with a chimeric FGF-1 construct having a functional signal sequence for secretion via the classical ER-Golgi protein secretory pathway (Forough et al., J. Biol. Chem. 268:2960, 1993) was unaffected by amlexanox by several phenotypic criteria, including secretory activity (not shown).

Data set [3] has as its system NIH 3T3 FGF-1 transfectants. The experiment in a line: Heat shock induced FGF-1 and p40 Syn-1 release by FGF-1 transfectants, immunoblot of conditioned media. It is filed as cell-based, murine. As to the method:
Chemical derivatives of amlexanox were tested for their effects on FGF-1 and p40 Syn-1 release by NIH 3T3 FGF-1 transfectants in response to heat shock. Media were conditioned by three 150 mm dishes of NIH3T3 cells stably transfected with FGF-1α (residues 21-154) after exposure to 41.5° C. for 90 min with or without amlexanox or the indicated amlexanox derivative. The media were collected and resolved by 12.5% acrylamide SDS-PAGE under reducing conditions followed by immunoblot analysis for FGF-1 as described herein.
(FIG. 19: Lane 1: media derived from NIH3T3 cell FGF-1 transfectants following heat shock in the absence of any drug; Lanes 2 through 4: media derived from NIH3T3 cell FGF-1 transfectants following heat shock in the presence of 1×10^−6 M, 1×10^−5 M, 1×10^−4 M, A673 (amlexanox) respectively; Lanes 5 through 7: media derived from NIH3T3 cell FGF-1 transfectants following heat shock in the presence of 1×10^−6 M, 1×10^−5 M, 1×10^−4 M AA617 respectively; Lanes 8 through 10: media derived from NIH3T3 cell FGF-1 transfectants following heat shock in the presence of 1×10^−6 M, 1×10^−5 M, 1×10^−4 M AA648 respectively; Lanes 11 through 13: media derived from NIH3T3 cell FGF-1 transfectants following heat shock in the presence of 1×10^−6 M, 1×10^−5 M, 1×10^−4 M, AA777 respectively; Lane 14: media derived from NIH3T3 cell FGF-1 transfectants maintained at 37° C. for 90 min; Lane 15, 50 ng of recombinant human FGF-1α. The structures of amlexanox (AA673) and its derivatives are also shown.

Data set [4] concerns NIH 3T3 FGF-1-β-gal:p65 Syn-1 co-transfectants. The experiment in a line: Heat shock induced release of FGF-1-β-gal and Syn-1 from co-transfectants, immunoblot of heparin binding fraction of conditioned medium. The data set is classed as cell-based, murine. The following applies: heat shock 41.5° C. for 90 min; concentration dependent; FIG. 17. Here is the method:
Stable NIH 3T3 FGF-1:β-gal transfectants were co-transfected with either p65 Syn-1, p65(Δ120-214) or p40 and maintained in Dulbecco's modified Eagle's medium (DMEM, GIBCO-BRL, Grand Island, N.Y.) containing 10% (v/v) bovine calf serum (BCS, Hyclone, Logan, Utah), 1× antibiotic-antimycotic (GIBCO-BRL) and 200 μg/ml G418 (GIBCO-BRL) and 250 μg/ml hygromycin (Boehringer Mannheim, Indianapolis, Ind.) on sterile tissue culture dishes coated with 10 μg/cm^2 human fibronectin prepared from human plasma by affinity adsorption to a column of immobilized type I collagen by methods well known in the art. […] Nat. Acad. Sci. USA 89:10691, 1992). […]
Following heat shock, conditioned media were collected, filtered using 0.2 μm filters (Millipore, Bedfore, Mass. ) according to the supplier's recommendations, and activated with 0.1% (w/v) dithiothreitol (DTT, Sigma, St. Louis, Mo.) for 2 h at 37° C. […] Aliquots of the concentrated eluates were analyzed by 10% sodium dodecylsulfate polyacrylamide gel electrophoresis (SDS-PAGE) as described (Jackson et al., J. Biol Chem. 270:33, 1995). […]
In this Example, the effects of members of the amlexanox family of pharmacologic agents known to bind to S100A13 (Oyama et al., Biochem. Biophys. Res. Commun. 240:341, 1997) were evaluated in cell based assay systems for export of FGF1:Syn-1 complexes in vitro. […]

Data set [5] shares this test system. The experiment in a line: Effects of pharmacologic inhibitors on heat shock induced release of p40. The data set is classed as cell-based, murine. The following applies: heat shock 42° C. for 100 min. Here is the method:
Stable NIH 3T3 FGF-1:β-gal transfectants were co-transfected with either p65 Syn-1, p65(Δ120-214) or p40 and maintained in Dulbecco's modified Eagle's medium (DMEM, GIBCO-BRL, Grand Island, N.Y.) containing 10% (v/v) bovine calf serum (BCS, Hyclone, Logan, Utah), 1× antibiotic-antimycotic (GIBCO-BRL) and 200 μg/ml G418 (GIBCO-BRL) and 250 μg/ml hygromycin (Boehringer Mannheim, Indianapolis, Ind.) on sterile tissue culture dishes coated with 10 μg/cm^2 human fibronectin prepared from human plasma by affinity adsorption to a column of immobilized type I collagen by methods well known in the art. Confluent monolayers of co-transfectants were rinsed with DMEM containing 4 U/ml heparin (Upjohn, Kalamazoo, Mich.) and subjected to heat shock (42° C. for 100 min) in DMEM containing 4 U/ml heparin and 0.5% BCS as described (Jackson et al., Proc. Nat. Acad. Sci. USA 89:10691, 1992). For each Syn-1 construct, three independent co-transfectant clones were tested.
Following heat shock, conditioned media were collected, filtered using 0.2 μm filters (Millipore, Bedfore, Mass. ) according to the supplier's recommendations, and activated with 0.1% (w/v) dithiothreitol (DTT, Sigma, St. Louis, Mo.) for 2 h at 37° C. (Jackson et al., J. Biol. Chem. 270:33, 1995). Conditioned media were then passed over a column of heparin-Sepharose™ CL-6B (Pharmacia Biotech, Piscataway, N.J.) equilibrated and eluted with 50 mM Tris pH 7.4 containing 10 mM EDTA (TE buffer, TEB). Following TEB washing, the column was eluted with 1.5 M NaCl in TEB and the eluate collected and concentrated using a Centricon™ 10 concentrator (Amicon, Inc., Beverly, Mass.) according to the manufacturer's instructions. Aliquots of the concentrated eluates were analyzed by 10% sodium dodecylsulfate polyacrylamide gel electrophoresis (SDS-PAGE) as described (Jackson et al., J. Biol Chem. 270:33, 1995). Electrophoretically separated samples were further characterized by immunoblot analysis as described (Jackson et al., Proc. Nat. Acad. Sci. USA 89:10691, 1992). […]

Data set [6] has as its system FGF-1-NIH 3T3 transfectants. Conditions: agent in the media of cultured cells exposed to heat shock; cited from earlier work.
Data set [7] concerns the molecule itself. Nature of the data set: Cu2+ oxidation, non-reduced SDS-PAGE. Here is the method:
Purified FGF-1 and p40 Syn-1 were incubated with, and without, Cu²⁺ for 10 min. and resolved on two non-reduced SDS-PAGE gels (A and B), as described by Maciag et al., Recent Prog. Horm. Res. 49:105-123 (1993). The systems were identical except gel 5B was immunoblotted with FGF-1 antibody, whereas gel 5A was not.
However, when FGF-1 and p40 Syn-1 were added together, non-reduced SDS-PAGE was able to resolve a unique component with an apparent Mᵣ˜66,000 (FIG. 6A). To determine whether this band contained FGF-1, this experiment was repeated and analyzed by FGF-1 immunoblot analysis.

The mark [8] stands for this setting: 41.5° C. for 90 min, 1×10^−6 M, 1×10^−5 M, 1×10^−4 M, FIG. 19.

Entries after “also recorded” stand apart in the source; their conditions may differ. Starred links: 1 amine or outer side, 2 acyl side, 3 side chain; linkers in the order of their positions; H or OH if unused. Positions of bridges follow the written chain, without caps; N, C: chain ends. Non-standard residues stand in square brackets, D forms with d. Residues, ends and D or L forms follow the SMILES beside them. Chains are numbered I, II in the order given. Actinocin(9to1) = Cc1c2oc3c(C)ccc(C(=O)[*:1])c3nc-2c(C(=O)[*:2])c(N)c1=O; NMeV = CN[C@H](C(=O)O)C(C)C; Sar = CNCC(=O)O

Consider `CC(C)c1ccc2oc3nc(N)c(C(=O)O)cc3c(=O)c2c1` [amlexanox], for which, in data set [1] (37° C., 5×10^−5M and 3×10^−1M AA673), the “constitutive release of p40 Syn-1” value is given as “no effect”. Also, the “enhanced p40 export in response to heat shock” value in data set [1] (heat shock 41.5° C., 90 min, 3×10^−4M AA673) is listed as “did inhibit”. Further, in data set [2], the “effect on phenotypic criteria, including secretory activity” value is “unaffected”. In data set [3] (setting [8]), the “FGF-1 release in response to temperature stress” value was “inhibition” and the “p40 Syn-1 release in response to temperature stress” value is listed as “inhibition”. Besides, the “FGF-1 release in response to heat shock” value in data set [3] (NIH 3T3 cell line stably transfected with FGF-1 instead of FGF-1-β-gal, not shown) is reported as “inhibited FGF-1 release”. In addition, in data set [4], the “release of FGF-1-β-gal in response to heat shock” value is given as “inhibited; also recorded: inhibition” and the “release of Syn-1 in response to heat shock” value is listed as “inhibited; also recorded: inhibition”.

In the case of `C[C@H]1CCC/C=C/[C@@H]2C[C@H](O)C[C@H]2[C@H](O)/C=C/C(=O)O1` [brefeldin A], the “heat shock induced release of p40” value in data set [5] is on record as “unaffected”.

As to `Cc1c2oc3c(C)ccc(C(=O)N[C@@H]4C(=O)N[C@H](C(C)C)C(=O)N5CCC[C@H]5C(=O)N(C)CC(=O)N(C)[C@@H](C(C)C)C(=O)O[C@@H]4C)c3nc-2c(C(=O)N[C@@H]2C(=O)N[C@H](C(C)C)C(=O)N3CCC[C@H]3C(=O)N(C)CC(=O)N(C)[C@@H](C(C)C)C(=O)O[C@@H]2C)c(N)c1=O` [actinomycin D] (I: T[dV]P[Sar][NMeV] / II: T[dV]P[Sar][NMeV]; ester I:1-I:C, II:1-II:C; linker I:N-II:N via Actinocin(9to1)), the “release of latent FGF-1” value in data set [6] was “inhibited”. Further, the “heat shock induced release of p40” value in data set [5] was “inhibited”.

Turning to `C[C@@H]1C[C@@H]([C@H](O)CC2CC(=O)NC(=O)C2)C(=O)[C@@H](C)C1` [cycloheximide], the “release of latent FGF-1” value in data set [6] is “inhibited”. In data set [5], the “heat shock induced release of p40” value is on record as “inhibited”.

B1: recombinant human p40 Syn-1 (other, UniProt P21579 104-422, looked up)
chain: MKDVKDLGKTMKDQALKDDDAETGLTDGEEKEEPKEEEKLGKLQYSLDYDFQNNQLLVGIIQAAELPALDMGGTSDPYVKVFLLPDKKKKFETKVHRKTLNPVFNEQFTFKVPYSELGGKTLVMAVYDFDRFSKHDIIGEFKVPMNTVDFGHVTEEWRDLQSAEKEEQEKLGDICFSLRYVPTAGKLTVVILEAKNLKKMDVGGLSDPYVKIHLMQNGKRLKKKKTTIKKNTLNPYYNESFSFEVPFEQIQKVQVVVTVLDYDKIGKNDAIGKVFVGYNSTGAELRHWSDMLANPRRPIAQWHTLQVEEEVDAMLAVKK
notes: domain: p40 form of Syn-1; also called p45; p40/45
With B1, the binding result in data set [7] is listed as “no binding”.
